For `COc1cc(O)c2c(c1)CCC1C2CCC2(C)C(=O)CCC12` (stereo not given), the melting point fell in the range of 220 to 222 °C. Under `COC(=O)Nc1cn2cc(Sc3ccccn3)ccc2n1` stands 230 to 236 °C; under `CCC1c2nc[nH]c2CCN1C(=S)NC(C)C` (stereo not given), 215 °C. For `COC1=C(OC)C(=O)C(CCCCCCCCCCCCCCCCCCCCO)=C(C)C1=O` the value was 85 °C; for `COC(OC)C1(C)CCc2c(C)c(O)c(C)c(C)c2O1` (stereo not given), 102 to 106 °C.

In turn, `CCCc1ccc(S(=O)(=O)Nc2ccc3ncccc3c2)cc1` gave a melting point of 180 to 181 °C. Under `CNS(=O)(=O)c1ccccc1Nc1nc(Nc2ccc3c(c2)CCN(S(C)(=O)=O)CC3)ncc1Cl` stands 199 to 201 °C. Under `C=C1CSC2C(NC(=O)COc3ccccc3)C(=O)N2C1C(=O)O` (stereo not given) stands 185 to 188 °C; under `COC1C(OC(N)=O)CCC2(CO2)C1C1(C)OC1CC=C(C)C` (stereo not given), 125 to 126 °C. Under `CC(C)(C)c1ccc(OCC(O)CN2CCC3(CC2)CSC2=C(O3)c3cc(F)ccc3C(=O)C2=O)cc1` (stereo not given) stands 114 to 116 °C. `ClCCCN1c2ccccc2OCOc2ccc(Cl)cc21` returned a melting point of 105 to 108 °C. For `Cc1cnc2c(c1)n(C(C)C)c(=O)n2-c1ccc(Oc2nc3cccnc3n2C)cc1` the value was 252 °C; for `CCOC(=O)C1=C(C)Nc2snc(CCN3CCN(c4ccccc4)CC3)c2C1c1cccc([N+](=O)[O-])c1` (single isomer, unassigned; (+)), 148 to 149 °C. Regarding `COC(=O)c1ccc(-c2cc(=O)c3ccc(N)cc3o2)cc1`, the melting point was > 260 °C. Compound `CCN1CCC(C(=O)O)(S(=O)(=O)c2ccc(OC)cc2)CC1` yielded a melting point of 209 °C. Under `COc1ccc(C2CCC(=O)N2c2ccc(OC)cc2)cc1` (stereo not given) stands 91.5 to 92.5 °C; under `CC(c1ccccc1N1CCCC1)C(C(N)=O)c1ccc(C(=O)O)cc1` (stereo not given), 155 to 157 °C. `CCCCCCCCCCCCCCCCOc1ccc(-c2nc(CC(=O)O)c(OCC)o2)cc1` returned a melting point of 89 to 91 °C. Under `Cc1cc2cccc([C@H](O)CO)c2nc1-c1ccccc1` stands 117 °C; under `Cc1csc(-c2c(C)c(NC(=O)CC(C)(C)C)c(C)c3c2OCC3c2ccc(C(C)C)cc2)n1` (stereo not given), 240 to 241 °C; under `CC(C)(C)n1c(=O)n(-c2ccnc(NC(=O)NCc3ccccn3)c2)c2ccccc21`, 164 to 165 °C. Compound `Oc1ccc2c(c1)OC(CNCCCc1c[nH]c3ccc(O)cc13)CO2` (stereo not given) yielded a melting point of 140 to 144 °C. Under `COC(=O)c1ccc(N2CCNCC2)nc1` stands 91 to 92 °C; under `Cc1ccccc1-n1ccc2c(NCCO)nc3c(C)cccc3c21`, 187 to 188 °C; under `CC(=O)OC1CSC(Oc2cccc(-c3cc(Cl)ccn3)c2)C(OC(C)=O)C1OC(C)=O` (stereo not given), 152 °C. Compound `[N-]=[N+]=C1C(=O)Nc2cccc(Cl)c21` returned a melting point of 214 to 215 °C. As for `O=C(O)[C@H]1C[C@H](F)CN1`, the melting point was 258 to 260 °C. Under `N#CC1=C(Nc2cc(F)cc(F)c2)CCC1` stands 113 to 115 °C. Under `COc1ccc(C2=NN(C3CCN(C(=O)CS(C)(=O)=O)CC3)C(=O)[C@@H]3CC=CC[C@H]23)cc1OC` stands 169 to 170 °C; under `O=C1COc2cc(NC(=O)C(=O)N3CCC(Cc4ccc(F)cc4)CC3)ccc2N1`, 209 to 212 °C; under `CC1(C)C(=O)Nc2ccc([N+](=O)[O-])cc21`, 192 to 196 °C. For `O=C1CC2(CCCC2)CC(=O)N1CCCCN1CCN(c2noc3cc(Cl)ccc23)CC1`, the melting point worked out at 128 °C. Under `COC(=O)c1cc(C=O)c(C)nc1C1=NC(C)(C(C)C)C(=O)N1` (stereo not given) stands 145 to 146 °C. Under `CC(C)(C)c1ccc(Oc2nc(-c3ccc(Cl)cc3)c(CCC(=O)O)o2)cc1` stands 166 to 167 °C; under `CCCCn1c(=Nc2ccccc2)sc2ncccc2c1=O`, 68 to 69 °C.

Broadly, the melting point is the temperature of the solid-liquid transition.
